Broadly, the IC50 is the concentration needed to halve the response being measured. Low readings indicate inhibition by little substance, high ones a need for much substance. The inhibition is the drop in the measured response relative to a control, in per cent.

The target in one series is hAChE (Homo sapiens, UniProt P22303). In words: In vitro AChE inhibition assay. It counts as biochemical. The conditions noted are these: in vitro AChE inhibition IC50 ± SD, Ellman method, n = 3. (DTNB colorimetry detects thiols as they appear.)
Sequence of hAChE (P22303 32-614): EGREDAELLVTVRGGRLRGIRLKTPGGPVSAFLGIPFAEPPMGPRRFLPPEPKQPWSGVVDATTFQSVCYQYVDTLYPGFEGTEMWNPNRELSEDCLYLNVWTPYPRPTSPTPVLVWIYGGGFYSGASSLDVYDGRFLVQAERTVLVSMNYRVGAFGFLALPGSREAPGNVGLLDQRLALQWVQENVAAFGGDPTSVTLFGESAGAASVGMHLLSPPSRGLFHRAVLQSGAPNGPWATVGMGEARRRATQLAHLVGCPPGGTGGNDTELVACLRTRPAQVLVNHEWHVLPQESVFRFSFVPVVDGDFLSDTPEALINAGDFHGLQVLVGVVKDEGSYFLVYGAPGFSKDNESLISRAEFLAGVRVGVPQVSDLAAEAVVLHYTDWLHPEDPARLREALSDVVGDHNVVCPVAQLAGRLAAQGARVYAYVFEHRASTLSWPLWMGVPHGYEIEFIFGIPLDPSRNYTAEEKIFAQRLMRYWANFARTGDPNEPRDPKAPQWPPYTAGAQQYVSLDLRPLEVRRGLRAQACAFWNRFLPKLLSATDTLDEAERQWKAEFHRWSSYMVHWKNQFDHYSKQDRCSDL
Molecule `Nc1c2c(nc3c1C(c1cccc(Br)c1)c1ccc(O)cc1O3)CCCC2` (centres unmarked) [3a, 11-Amino-12-(3-bromophenyl)-7,9,10,12-tetrahydro-8H-chromeno[2,3-b]quinolin-3-ol] had an IC50 of 3.48 ± 0.19 µM.
Molecule `COc1cccc(C2c3ccc(O)cc3Oc3nc4c(c(N)c32)CCCC4)c1` (centres unmarked) [3b, 11-Amino-12-(3-methoxyphenyl)-7,9,10,12-tetrahydro-8H-chromeno[2,3-b]quinolin-3-ol] returned an IC50 of 26.7 ± 1.42 µM.
`Nc1c2c(nc3c1C(c1cccc([N+](=O)[O-])c1)c1ccc(O)cc1O3)CCCC2` (centres unmarked) [3c, 11-Amino-12-(3-nitrophenyl)-7,9,10,12-tetrahydro-8H-chromeno[2,3-b]quinolin-3-ol] came in with an IC50 of 15.1 ± 0.8 µM.
`Nc1c2c(nc3c1C(c1ccc(Cl)c(Cl)c1)c1ccc(O)cc1O3)CCCC2` (centres unmarked) [3d, 11-Amino-12-(3,4-dichlorophenyl)-7,9,10,12-tetrahydro-8H-chromeno[2,3-b]quinolin-3-ol] had an IC50 of 5.31 ± 0.28 µM. This IC50 is about 2.8-fold lower than that of the molecule before.
Still for that read-out and setting: the result for `COc1ccccc1C1c2ccc(O)cc2Oc2nc3c(c(N)c21)CCCC3` (centres unmarked) [3e, 11-Amino-12-(2-methoxyphenyl)-7,9, 10, 12-tetrahydro-8H-chromeno[2,3-b]quinolin-3-ol] reads 5.88 ± 0.31 µM; that for `Nc1c2c(nc3c1C(c1cccc(Br)c1)c1ccc(OS(=O)(=O)c4ccc(F)cc4)cc1O3)CCCC2` (centres unmarked) [4a, 11-Amino-12-(3-bromophenyl)-7,9,10,12-tetrahydro-8H-chromeno[2,3-b]quinolin-3-yl-4-fluorobenzenesulfonate], 3.88 ± 0.21 µM.
In the case of `COc1cccc(C2c3ccc(OS(=O)(=O)c4ccc(F)cc4)cc3Oc3nc4c(c(N)c32)CCCC4)c1` (centres unmarked) [4b, 11-Amino-12-(3-methoxyphenyl)-7,9,10,12-tetrahydro-8H-chromeno[2,3-b]quinolin-3-yl-4-fluorobenzenesulfonate], half-maximal inhibition (IC50) required 13.5 ± 0.72 µM. Against the preceding molecule, the IC50 is about 3.5-fold higher.
In the case of `Nc1c2c(nc3c1C(c1ccc(Cl)c(Cl)c1)c1ccc(OS(=O)(=O)c4ccc(F)cc4)cc1O3)CCCC2` (centres unmarked) [4d, 11-Amino-12-(3,4-dichlorophenyl)-7,9,10,12-tetrahydro-8H-chromeno[2,3-b]quinolin-3-yl-4-fluorobenzenesulfonate], 6.09 ± 0.32 µM corresponded to half-maximal inhibition (IC50).
Molecule `COc1ccccc1C1c2ccc(OS(=O)(=O)c3ccc(F)cc3)cc2Oc2nc3c(c(N)c21)CCCC3` (centres unmarked) [4e, 11-Amino-12-(2-methoxyphenyl)-7,9,10,12-tetrahydro-8H-chromeno[2,3-b]quinolin-3-yl-4-fluorobenzenesulfonate] had an IC50 of 22.4 ± 1.19 µM.
Same read-out and setting: the result for `COc1ccc(S(=O)(=O)Oc2ccc3c(c2)Oc2nc4c(c(N)c2C3c2cccc(Br)c2)CCCC4)cc1` (centres unmarked) [4f, 11-Amino-12-(3-bromophenyl)-7,9,10,12-tetrahydro-8H-chromeno[2,3-b]quinolin-3-yl-4-methoxybenzenesulfonate] reads 0.73 ± 0.03 µM.
Same read-out and setting: the result for `COc1ccc(S(=O)(=O)Oc2ccc3c(c2)Oc2nc4c(c(N)c2C3c2cccc([N+](=O)[O-])c2)CCCC4)cc1` (centres unmarked) [4h, 11-Amino-12-(3-nitrophenyl)-7,9,10,12-tetrahydro-8H-chromeno[2,3-b]quinolin-3-yl-4-methoxybenzenesulfonate] reads 1.53 ± 0.07 µM; that for `COc1ccc(S(=O)(=O)Oc2ccc3c(c2)Oc2nc4c(c(N)c2C3c2ccc(Cl)c(Cl)c2)CCCC4)cc1` (centres unmarked) [4i, 11-Amino-12-(3,4-dichlorophenyl)-7,9,10,12-tetrahydro-8H-chromeno[2,3-b]quinolin-3-yl-4-methoxybenzenesulfonate], 2.2 ± 0.1 µM; that for `COc1ccc(S(=O)(=O)Oc2ccc3c(c2)Oc2nc4c(c(N)c2C3c2ccccc2OC)CCCC4)cc1` (centres unmarked) [4j, 11-Amino-12-(2-methoxyphenyl)-7,9,10,12-tetrahydro-8H-chromeno[2,3-b]quinolin-3-yl-4-methoxybenzenesulfonate], 5.16 ± 0.22 µM.
Same read-out and setting: the result for `Cc1ccc(S(=O)(=O)Oc2ccc3c(c2)Oc2nc4c(c(N)c2C3c2cccc(Br)c2)CCCC4)cc1` (centres unmarked) [4k, 11-Amino-12-(3-bromophenyl)-7,9,10,12-tetrahydro-8H-chromeno[2,3-b]quinolin-3-yl-4-methylbenzenesulfonate] reads 9.35 ± 0.4 µM; that for `COc1cccc(C2c3ccc(OS(=O)(=O)c4ccc(C)cc4)cc3Oc3nc4c(c(N)c32)CCCC4)c1` (centres unmarked) [4l, 11-Amino-12-(3-methoxyphenyl)-7,9,10,12-tetrahydro-8H-chromeno[2,3-b]quinolin-3-yl-4-methylbenzenesulfonate], 2.62 ± 0.11 µM; that for `Cc1ccc(S(=O)(=O)Oc2ccc3c(c2)Oc2nc4c(c(N)c2C3c2cccc([N+](=O)[O-])c2)CCCC4)cc1` (centres unmarked) [4m, 11-Amino-12-(3-nitrophenyl)-7,9,10,12-tetrahydro-8H-chromeno[2,3-b]quinolin-3-yl-4-methylbenzenesulfonate], 11.1 ± 0.48 µM.
The molecule `COc1ccccc1C1c2ccc(OS(=O)(=O)c3ccc(C)cc3)cc2Oc2nc3c(c(N)c21)CCCC3` (centres unmarked) [4o, 11-Amino-12-(2-methoxyphenyl)-7,9,10,12-tetrahydro-8H-chromeno[2,3-b]quinolin-3-yl-4-methylbenzenesulfonate] came in with an IC50 of 1.03 ± 0.04 µM. Against the preceding molecule, the IC50 is about 11-fold lower.
Still for that read-out and setting: the result for `Nc1c2c(nc3c1C(c1cccc(Br)c1)c1ccc(OS(=O)(=O)c4ccccc4)cc1O3)CCCC2` (centres unmarked) [4p, 11-Amino-12-(3-bromophenyl)-7,9,10,12-tetrahydro-8H-chromeno[2,3-b]quinolin-3-yl-benzenesulfonate] reads 1.34 ± 0.07 µM.
`COc1cccc(C2c3ccc(OS(=O)(=O)c4ccccc4)cc3Oc3nc4c(c(N)c32)CCCC4)c1` (centres unmarked) [4q, 11-Amino-12-(3-methoxyphenyl)-7,9,10,12-tetrahydro-8H-chromeno[2,3-b]quinolin-3-yl-benzenesulfonate] registered an IC50 of 2.45 ± 0.12 µM.
As to `Nc1c2c(nc3c1C(c1cccc([N+](=O)[O-])c1)c1ccc(OS(=O)(=O)c4ccccc4)cc1O3)CCCC2` (centres unmarked) [4r, 11-Amino-12-(3-nitrophenyl)-7,9,10,12-tetrahydro-8H-chromeno[2,3-b]quinolin-3-yl-benzenesulfonate], the IC50 was 5.5 ± 0.28 µM. This IC50 is about 2.2-fold higher than that of the molecule before.
On to `Nc1c2c(nc3c1C(c1ccc(Cl)c(Cl)c1)c1ccc(OS(=O)(=O)c4ccccc4)cc1O3)CCCC2` (centres unmarked) [4s, 11-Amino-12-(3,4-dichlorophenyl)-7,9,10,12-tetrahydro-8H-chromeno[2,3-b]quinolin-3-yl-benzenesulfonate], for which the IC50 was found to be 9.69 ± 0.49 µM.
Still for that read-out and setting: the result for `COc1ccccc1C1c2ccc(OS(=O)(=O)c3ccccc3)cc2Oc2nc3c(c(N)c21)CCCC3` (centres unmarked) [4t, 11-Amino-12-(2-methoxyphenyl)-7,9,10,12-tetrahydro-8H-chromeno[2,3-b]quinolin-3-yl-benzenesulfonate] reads 24 ± 1.21 µM; that for `Nc1c2c(nc3c1C(c1cccc(Br)c1)c1ccc(OCC(=O)c4ccc(Cl)cc4)cc1O3)CCCC2` (centres unmarked) [5a, 2-[11-Amino-12-(3-bromophenyl)-7,9,10,12-tetrahydro-8H-chromeno[2,3-b]quinolin-3-yl]oxy-1-(4-chlorophenyl)ethan-1-one], 0.99 ± 0.05 µM; that for `COc1cccc(C2c3ccc(OCC(=O)c4ccc(Cl)cc4)cc3Oc3nc4c(c(N)c32)CCCC4)c1` (centres unmarked) [5b, 2-[11-Amino-12-(3-methoxyphenyl)-7,9,10,12-tetrahydro-8H-chromeno[2,3-b]quinolin-3-yl]oxy-1-(4-chlorophenyl)ethan-1-one], 6.01 ± 0.3 µM.
In turn, `COc1ccccc1C1c2ccc(OCC(=O)c3ccc(Cl)cc3)cc2Oc2nc3c(c(N)c21)CCCC3` (centres unmarked) [5e, 2-[11-Amino-12-(2-methoxyphenyl)-7,9,10,12-tetrahydro-8H-chromeno[2,3-b]quinolin-3-yl]oxy-1-(4-chlorophenyl)ethan-1-one] registered an IC50 of 0.75 ± 0.04 µM.
`Nc1c2c(nc3c1C(c1cccc(Br)c1)c1ccc(OCC(=O)c4ccccc4)cc1O3)CCCC2` (centres unmarked) [5f, 2-[11-Amino-12-(3-bromophenyl)-7,9,10,12-tetrahydro-8H-chromeno[2,3-b]quinolin-3-yl]oxy-1-phenylethan-1-one] showed an IC50 of 1.14 ± 0.054 µM.
Regarding `COc1cccc(C2c3ccc(OCC(=O)c4ccccc4)cc3Oc3nc4c(c(N)c32)CCCC4)c1` (centres unmarked) [5g, 2-[11-Amino-12-(3-methoxyphenyl)-7,9,10,12-tetrahydro-8H-chromeno[2,3-b]quinolin-3-yl]oxy-1-phenylethan-1-one], 31 ± 1.47 µM corresponded to half-maximal inhibition (IC50).
`Nc1c2c(nc3c1C(c1cccc([N+](=O)[O-])c1)c1ccc(OCC(=O)c4ccccc4)cc1O3)CCCC2` (centres unmarked) [5h, 2-[11-Amino-12-(3-nitrophenyl)-7,9,10,12-tetrahydro-8H-chromeno[2,3-b]quinolin-3-yl]oxy-1-phenylethan-1-one] yielded an IC50 of 10.2 ± 0.48 µM.
With `COc1ccccc1C1c2ccc(OCC(=O)c3ccccc3)cc2Oc2nc3c(c(N)c21)CCCC3` (centres unmarked) [5j, 2-[11-Amino-12-(2-methoxyphenyl)-7,9,10,12-tetrahydro-8H-chromeno[2,3-b]quinolin-3-yl]oxy-1-phenylethan-1-one], the IC50 worked out at 2.48 ± 0.12 µM.

The target in a further series is Aβ1–42 (Homo sapiens, UniProt P05067). In words: Self-induced Aβ1–42 aggregation inhibition. In kind it is biochemical. The note with it: read-out: Aβ1–42 (% inhibition at 10 μM).
Sequence of Aβ1–42 (P05067 672-713): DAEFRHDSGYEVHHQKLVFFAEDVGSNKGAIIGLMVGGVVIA
Take `COc1cc(/C=C/C(=O)CC(=O)/C=C/c2ccc(O)c(OC)c2)ccc1O` [Curcumin, reference compound]: the inhibition at 10 µM is 44%.

Test system in the next series: not listed separately
In words: In vitro hepatotoxicity MTT assay. The conditions noted are these: human.
For the molecule `COc1cccc2c1C(=O)c1c(O)c3c(c(O)c1C2=O)C[C@@](O)(C(=O)CO)C[C@@H]3O[C@H]1C[C@H](N)[C@H](O)[C@H](C)O1` [Doxorubicin, reference compound], inhibition was half-maximal at 4.5 ± 0.2 µM (IC50 at 24 h).
In turn, `Nc1c2c(nc3ccccc13)CCCC2` [Tacrine, reference compound] had an IC50 at 24 h of 17.5 ± 1.1 µM.

Source of the values: PMC10373466 (ACS Omega, 2023).
